The test system of one data set is whole human blood. The data set can be described thus: Dose-dependent prothrombin time (PT) in whole blood. Type of data set: biochemical. The note with it: 1, 2, 3, 4 uM; 2 h room temperature; citrated whole human blood. Here is the method:
139. […] PT time was measured using RecombiPlasTin 2G for quantitative determination in human citrated plasma of PT and Fibrinogen on an ACLTOP coagulation analyzer manufactured by Instrumentation Laboratory (Bedford, MA, USA). To assess the activity of the aptamers in a dose-dependent manner in whole blood, human blood samples were collected in citrate-treated tubes. The blood samples were then incubated at room temperature for 2 h in the absence or presence of varying concentrations of the thrombin aptamers. To measure the Prothrombin Time (PT) on the ACLTOP coagulation analyzer, plasma was obtained by centrifuging the samples at 1500×g for 10 min at 4° C. For the dose dependence study, concentrations of 1 uM, 2 uM, 3 uM, and 4 uM of AYA1809002 and AYA1809004 were utilized.
156. To facilitate future applications, gaining a comprehensive understanding of the activity of aptamers in whole blood is of paramount importance. To assess their effectiveness, we tested the selected aptamers at various concentrations in whole blood to evaluate their impact on Factor II activity and PT time. Human blood samples were collected in citrate- treated tubes. The blood samples were then incubated at room temperature for 2 h in the absence or presence of varying concentrations of thrombin aptamers. […]

The target of data set [1] is T1, thrombin (Homo sapiens, UniProt P00734). Kind of data set: Direct thrombin activity inhibition (Thrombin Inhibitor Screening Assay Kit, fluorometric). Type of data set: biochemical. The note with it: different aptamer concentrations; AMC substrate, 360/460 nm, 45 min, 37° C. Also on record: a thrombin enzyme mixture was added to each sample and control well; purchased Abcam ab197007. On the procedure:
141. A Thrombin Inhibitor Screening Assay Kit (fluorometric) (Abcam, cat #ab197007, Waltham, Boston, MA, USA) was employed to test the direct binding ability and inhibitory potential of the AYA1809002 and AYA1809004 aptamers against thrombin. The procedure was carried out following the standard protocol provided with the kit. […] Subsequently, a thrombin enzyme mixture was added to each sample and control well. Following an incubation period of 20 min, a substrate mixture was introduced into each sample and control well. Fluorescence measurements were taken using a SYNERGY/HTX multi-mode reader (BioTek, Agilent Technologies, Santa Clara, CA 95051, USA) with the excitation/emission wavelengths set at 360/460 nm. The measurements were recorded for 45 min at a temperature of 37° C. while ensuring protection from light.
155. The direct binding and inhibitory capabilities of AYA1809002 and AYA1809004 ap- tamers on thrombin were evaluated using a Thrombin Inhibitor Screening Assay Kit (fluorometric). The procedure was carried out following the standard protocol provided with the kit. […] The fluorescence intensity is then measured over time to assess the thrombin inhibitory potential of the sample. […] The released AMC is detectable through fluorescence measurement at an excitation/emission wavelength of 360/460 nm.

For the next data set, the system named is rat whole blood. Kind of data set: Factor II activity, PT, APPT and TT in rat whole blood. The data set is classed as biochemical. As to conditions: dose-dependent manner.
Data set [2] has as its target thrombin over other serine proteases (Homo sapiens, UniProt P00734). Kind of data set: Selectivity for thrombin over other serine proteases (Table 3). The note with it: Table 3, AYA1809002. Type of data set: biochemical.
For data set [3], the target named is T1, thrombin. Kind of data set: Thrombin inhibition IC50 (Table 3). Type of data set: biochemical. As to conditions: Table 3, AYA1809002.
Data set [4] is described as follows: Major bleeding rate in animal studies (Table 3). Type of data set: in vivo.
Data set [5] in a line: Storage stability (Table 3). The note with it: after 24 months at room temperature. Type of data set: physicochemical.
Data set [6] can be described thus: Onset, consistency and reversal of anticoagulant effect (Table 3). As to conditions: Table 3, AYA1809002. Type of data set: in vivo.
Data set [7] can be described thus: Pharmacokinetics and renal clearance (Table 3). The data set is classed as in vivo. The note with it: Table 3, AYA1809002.

“Also recorded” adds a separate entry of the source.

From patent US20250304973A1, “HIGH-AFFINITY THROMBIN APTAMERS AND METHODS OF USE” (Ayass Bioscience LLC, priority 2024, published 2025) come the findings set out here.

For “AYA1809004: ssDNA thrombin aptamer TCGTCAAGGTACGGTTGGGGGGGTGGGTGTTGACGTTGAA (DNA, backbone not given here)”, the “effect on prothrombin time (PT) in whole blood” value in the data set on whole human blood is given as “corresponding increase in prothrombin time”. Moreover, the “inhibition of thrombin activity” value in the data set with thrombin [1] is “dose-dependent inhibition of thrombin activity”.

Broadly, the IC50 is the concentration that inhibits the measured activity by half. Lower therefore signals greater potency. In the case of “AYA1809002: ssDNA thrombin aptamer GCGGTGTTGCTGGGGTTGGGAGGTTGGAGGAAGCAATCGC”, in the data set on rat whole blood, the “APPT in rat whole blood” value is “extend”, the “Factor II activity in rat whole blood” value is listed as “inhibit”, the “PT in rat whole blood” value was “extend” and the “TT in rat whole blood” value is “extend”. The “selectivity for thrombin over other serine proteases” value in data set [2] was >100-fold selectivity. Further, in the data set on whole human blood, the “effect on prothrombin time (PT) in whole blood” value is recorded as “corresponding increase in prothrombin time; also recorded: corresponding increase in PT”. In addition, the 50% inhibitory concentration (IC50) with thrombin [3] was ≤ 0.5 nM. Further, in the data set with thrombin [1], the “inhibition of thrombin activity” value was “dose-dependent inhibition of thrombin activity”. In data set [4], the major bleeding rate result is “(≤2% major bleeding”. In addition, the “activity maintained on storage” value in data set [5] was “Maintain >95%”. In data set [6], the “Anticoagulant Effect Consistency: inter-individual variability in aPTT prolongation” value is given as <15% inter-individual and the “Onset of Action: peak effect” value was “Peak effect withing 1 hour”. Besides, the “Renal Clearance” value in data set [7] is listed as <50%.
